Test system: HIV-1 (IIIB) in MT-4 cells
Assay: MT-4 HIV assay
Format: cell-based
Conditions: Human immunodeficiency virus 1, MT4, 120 h; HIV-1 (IIIB), MT-4 cells, 5 days, Cell Titer Glo; read-out: EC50
Procedure, shortened: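 Antiviral activity was read by Cell Titer Glo after a 5-day, 37 °C culture of MT-4 cells pre-infected with a 1:250 dilution of HIV-1 (IIIB). Compounds were tested as threefold dilution series in complete RPMI. Controls were no drug, mock infection and 5 uM AZT.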

Going from `COC(=O)N[C@H](C(=O)N[C@@H](Cc1ccc(C#Cc2ccc(N3CC4CCC(C3)N4)nc2)cc1)[C@@H](O)CN(Cc1c(F)cc(-c2cnn(C(F)F)c2)cc1F)NC(=O)[C@@H](NC(=O)OC)C(C)(C)C(F)(F)F)C(C)(C)C(F)(F)F` [Example 162, Methyl ((5S,8S,9S,14S)-8-(4-((6-(3,8-diazabicyclo[3.2.1]octan-3-yl)pyridin-3-yl)ethynyl)benzyl)-11-(4-(1-(difluoromethyl)-1H-pyrazol-4-yl)-2,6-difluorobenzyl)-16,16,16-trifluoro-9-hydroxy-15,15-dimethyl-3,6,13-trioxo-5-(1,1,1-trifluoro-2-methylpropan-2-yl)-2-oxa-4,7,11,12-tetraazahexadecan-14-yl)carbamate] to `COC(=O)N[C@H](C(=O)N[C@@H](Cc1ccc(C#Cc2ccc(N3CC4CCC(C3)N4C(C)C)nc2)cc1)[C@@H](O)CN(Cc1c(F)cc(-c2cnn(C(F)F)c2)cc1F)NC(=O)[C@@H](NC(=O)OC)C(C)(C)C(F)(F)F)C(C)(C)C(F)(F)F` [Example 166, Methyl ((5S,8S,9S,14S)-11-(4-(1-(difluoromethyl)-1H-pyrazol-4-yl)-2,6-difluorobenzyl)-16,16,16-trifluoro-9-hydroxy-8-(4-((6-(8-isopropyl-3,8-diazabicyclo[3.2.1]octan-3-yl)pyridin-3-yl)ethynyl)benzyl)-15,15-dimethyl-3,6,13-trioxo-5-(1,1,1-trifluoro-2-methylpropan-2-yl)-2-oxa-4,7,11,12-tetraazahexadecan-14-yl)carbamate], the EC50 falls from 12.2 nM to 7.06 nM (1.7-fold). The second is the more potent here.

`COC(=O)N[C@H](C(=O)N[C@@H](Cc1ccc(C#Cc2ccc(N3C[C@H]4CN(C)C[C@H]4C3)nc2)cc1)[C@@H](O)CN(Cc1c(F)cc(-c2ccn(C(F)F)n2)cc1F)NC(=O)[C@@H](NC(=O)OC)C(C)(C)C(F)(F)F)C(C)(C)C(F)(F)F` [Example 164, Methyl ((5S,8S,9S,14S)-11-(4-(1-(difluoromethyl)-1H-pyrazol-3-yl)-2,6-difluorobenzyl)-16,16,16-trifluoro-9-hydroxy-15,15-dimethyl-8-(4-((6-((3 aR,6aS)-5-methylhexahydropyrrolo[3,4-c]pyrrol-2(1H)-yl)pyridin-3-yl)ethynyl)benzyl)-3,6,13-trioxo-5-(1,1,1-trifluoro-2-methylpropan-2-yl)-2-oxa-4,7,11,12-tetraazahexadecan-14-yl)carbamate] and `COC(=O)N[C@H](C(=O)N[C@@H](Cc1ccc(C#Cc2cnc(N3CC4CCC(C3)N4)nc2)cc1)[C@@H](O)CN(Cc1c(F)cc(-c2ccn(C(F)F)n2)cc1F)NC(=O)[C@@H](NC(=O)OC)C(C)(C)C(F)(F)F)C(C)(C)C(F)(F)F` [Example 172, Methyl ((5S,8S,9S,14S)-8-(4-((2-(3,8-diazabicyclo[3.2.1]octan-3-yl)pyrimidin-5-yl)ethynyl)benzyl)-11-(4-(1-(difluoromethyl)-1H-pyrazol-3-yl)-2,6-difluorobenzyl)-16,16,16-trifluoro-9-hydroxy-15,15-dimethyl-3,6,13-trioxo-5-(1,1,1-trifluoro-2-methylpropan-2-yl)-2-oxa-4,7,11,12-tetraazahexadecan-14-yl)carbamate] are within 1.5-fold of each other in EC50: 7.89 nM for the first, 5.86 nM for the second.

`CC(C)([C@H](NC(=O)OC1COC1)C(=O)N[C@@H](Cc1ccc(C#Cc2ccc(N3CC4CCC(C3)N4C3COC3)nc2)cc1)[C@@H](O)CN(Cc1c(F)cc(-c2ccn(C(F)F)n2)cc1F)NC(=O)[C@@H](NC(=O)OC1COC1)C(C)(C)C(F)(F)F)C(F)(F)F` [Example 169, oxetan-3-yl ((2S)-1-(2-(4-(1-(difluoromethyl)-1H-pyrazol-3-yl)-2,6-difluorobenzyl)-2-((2S,3S)-2-hydroxy-4-(4-((6-(8-(oxetan-3-yl)-3,8-diazabicyclo[3.2.1]octan-3-yl)pyridin-3-yl)ethynyl)phenyl)-3-((S)-4,4,4-trifluoro-33-dimethyl-2-(((oxetan-3-yloxy)carbonyl)amino)butanamido)butyl)hydrazinyl)-4,4,4-trifluoro-3,3-dimethyl-1-oxobutan-2-yl)carbamate] and `CC(=O)N[C@H](C(=O)N[C@@H](Cc1ccc(C#Cc2ccc(N3CC4CCC(C3)N4C3COC3)nc2)cc1)[C@@H](O)CN(Cc1c(F)cc(-c2ccn(C(F)F)n2)cc1F)NC(=O)[C@@H](NC(C)=O)C(C)(C)C(F)(F)F)C(C)(C)C(F)(F)F` [Example 182, (2S)-2-acetamido-N-((2S,3S)-4-(2-((S)-2-acetamido-4,4,4-trifluoro-3,3-dimethylbutanoyl)-1-(4-(1-(difluoromethyl)-1H-pyrazol-3-yl)-2,6-difluorobenzyl)hydrazinyl)-3-hydroxy-1-(4-((6-(8-(oxetan-3-yl)-3,8-diazabicyclo[3.2.1]octan-3-yl)pyridin-3-yl)ethynyl)phenyl)butan-2-yl)-4,4,4-trifluoro-3,3-dimethylbutanamide] are within 1.5-fold of each other in EC50: 6.76 nM for the first, 8.82 nM for the second.

`COC(=O)N[C@H](C(=O)N[C@@H](Cc1ccc(C#Cc2ccc(N3CC4CCC(C3)N4C3COC3)cc2)cc1)[C@@H](O)CN(Cc1c(F)cc(-c2ccccn2)cc1F)NC(=O)[C@@H](NC(=O)OC)C(C)(C)C(F)(F)F)C(C)(C)C(F)(F)F` [Example 177, Methyl ((5S,8S,9S,14S)-11-(2,6-difluoro-4-(pyridin-2-yl)benzyl)-16,16,16-trifluoro-9-hydroxy-15,15-dimethyl-8-(4-((4-(8-(oxetan-3-yl)-3,8-diazabicyclo [3.2.1]octan-3-yl)phenyl)ethynyl)benzyl)-3,6,13-trioxo-5-(1,1,1-trifluoro-2-methylpropan-2-yl)-2-oxa-4,7,11,12-tetraazahexadecan-14-yl)carbamate] and `COC(=O)N[C@H](C(=O)N[C@@H](Cc1ccc(C#Cc2ccc(N3CC4CCC(C3)N4C3COC3)cc2)cc1)[C@@H](O)CN(Cc1c(F)cc(-c2ccn(C(F)F)n2)cc1F)NC(=O)[C@@H](NC(=O)OC)C(C)(C)C(F)(F)F)C(C)(C)C(F)(F)F` [Example 178, Methyl ((5S,8S,9S,14S)-11-(4-(1-(difluoromethyl)-1H-pyrazol-3-yl)-2,6-difluorobenzyl)-16,16,16-trifluoro-9-hydroxy-15,15-dimethyl-8-(4-((4-(8-(oxetan-3-yl)-3,8-diazabicyclo[3.2.1]octan-3-yl)phenyl)ethynyl)benzyl)-3,6,13-trioxo-5-(1,1,1-trifluoro-2-methylpropan-2-yl)-2-oxa-4,7,11,12-tetraazahexadecan-14-yl)carbamate] are within 1.5-fold of each other in EC50: 8.12 nM for the first, 10.3 nM for the second.

Compared with `CCC(=O)N[C@H](C(=O)N[C@@H](Cc1ccc(C#Cc2cnc(N3CC4CCC(C3)N4C3COC3)nc2)cc1)[C@@H](O)CN(Cc1c(F)cc(-c2ccn(C(F)F)n2)cc1F)NC(=O)[C@@H](NC(=O)CC)C(C)(C)C(F)(F)F)C(C)(C)C(F)(F)F` [Example 181, (2S)—N-((2S,3S)-4-(1-(4-(1-(difluoromethyl)-1H-pyrazol-3-yl)-2,6-difluorobenzyl)-2-((S)-4,4,4-trifluoro-3,3-dimethyl-2-propionamidobutanoyl)hydrazinyl)-3-hydroxy-1-(4-((2-(8-(oxetan-3-yl)-3,8-diazabicyclo[3.2.1]octan-3-yl)pyrimidin-5-yl)ethynyl)phenyl)butan-2-yl)-4,4,4-trifluoro-3,3-dimethyl-2-propionamidobutanamide], `COC(=O)N[C@H](C(=O)N[C@@H](Cc1ccc(-c2cnc(N3CC4CCC(C3)N4C3COC3)nc2)cc1)[C@@H](O)CN(Cc1c(F)cc(-c2cn(C(F)F)cn2)cc1F)NC(=O)[C@@H](NC(=O)OC)C(C)(C)C(F)(F)F)C(C)(C)C(F)(F)F` [Example 189, Methyl ((5S,8S,9S,14S)-11-(4-(1-(difluoromethyl)-1H-imidazol-4-yl)-2,6-difluorobenzyl)-16,16,16-trifluoro-9-hydroxy-15,15-dimethyl-8-(4-(2-(8-(oxetan-3-yl)-3,8-diazabicyclo[3.2.1]octan-3-yl)pyrimidin-5-yl)benzyl)-3,6,13-trioxo-5-(1,1,1-trifluoro-2-methylpropan-2-yl)-2-oxa-4,7,11,12-tetraazahexadecan-14-yl)carbamate] is 1.6-fold lower in EC50: 8.5 nM for the first, 5.47 nM for the second.

Compared with `COC(=O)N[C@H](C(=O)N[C@@H](Cc1ccc(C#Cc2ccc(N3CC4CCC(C3)N4C3COC3)nc2)cc1)[C@@H](O)CN(Cc1c(F)cc(-c2ccn(C(F)F)n2)cc1F)NC(=O)[C@@H](NC(=O)OC1CC1)C(C)(C)C)C(C)(C)C(F)(F)F` [Example 187, cyclopropyl ((5S,8S,9S,14S)-11-(4-(1-(difluoromethyl)-1H-pyrazol-3-yl)-2,6-difluorobenzyl)-9-hydroxy-15,15-dimethyl-8-(4-((6-(8-(oxetan-3-yl)-3,8-diazabicyclo[3.2.1]octan-3-yl)pyridin-3-yl)ethynyl)benzyl)-3,6,13-trioxo-5-(1,1,1-trifluoro-2-methylpropan-2-yl)-2-oxa-4,7,11,12-tetraazahexadecan-14-yl)carbamate], `COC(=O)N[C@H](C(=O)NN(Cc1c(F)cc(-c2cn(C(F)F)cn2)cc1F)C[C@H](O)[C@H](Cc1ccc(-c2cnc(N3CC4CCC(C3)N4C3COC3)nc2)cc1)NC(=O)[C@@H](NC(=O)OC)C(C)(C)C(F)(F)F)C(C)(C)C` [Example 190, methyl ((5S,8S,9S,14S)-11-(4-(1-(difluoromethyl)-1H-imidazol-4-yl)-2,6-difluorobenzyl)-9-hydroxy-15,15-dimethyl-8-(4-(2-(8-(oxetan-3-yl)-3,8-diazabicyclo[3.2.1]octan-3-yl)pyrimidin-5-yl)benzyl)-3,6,13-trioxo-5-(1,1,1-trifluoro-2-methylpropan-2-yl)-2-oxa-4,7,11,12-tetraazahexadecan-14-yl)carbamate] is 1.5-fold higher in EC50: 4.7 nM for the first, 7.06 nM for the second.

With `COC(=O)N[C@H](C(=O)N[C@@H](Cc1ccc(-c2ccc(N3C[C@H]4C[C@@H]3CN4C3COC3)nc2)cc1)[C@@H](O)CN(Cc1c(F)cc(-c2ccn(CC(F)F)n2)cc1F)NC(=O)[C@@H](NC(=O)OC)C(C)(C)C(F)(F)F)C(C)(C)C(F)(F)F` [Example 188, methyl ((5S,8S,9S,14S)-11-(4-(1-(2,2-difluoroethyl)-1H-pyrazol-3-yl)-2,6-difluorobenzyl)-16,16,16-trifluoro-9-hydroxy-15,15-dimethyl-8-(4-(6-((1R,4R)-5-(oxetan-3-yl)-2,5-diazabicyclo[2.2.1]heptan-2-yl)pyridin-3-yl)benzyl)-3,6,13-trioxo-5-(1,1,1-trifluoro-2-methylpropan-2-yl)-2-oxa-4,7,11,12-tetraazahexadecan-14-yl)carbamate] the EC50 was 9 nM.
